# Measured values taken from patent publication US8628806B2, “Hypolipidemic composition and its use” (Hangzhou Minsheng Pharmaceutical Co., Ltd., priority 2006, dated 2014).
# What was measured:
# hyperlipidemia mice [1] = assay: Example 14 lipid lowering screening test in yolk emulsion hyperlipidemia mice; type: in vivo; conditions: hyperlipidemia ICR mice; ig once daily 7 days; dose 20 mg/kg; X±SD, 10 animals
# Experimental: As described before, the test medicine is the mixture of H series and B series in the ratio H:B (3:1). Recommended dose (for animal) is: […] the recommended does is 200 mg/kg. • Test medicine 1: H1+B1, ig 0.2 ml/10 g; • Test medicine 2: H2+B1, ig 0.2 ml/10 g; • Test medicine 3: H3+B1, ig 0.2 ml/10 g; • Test medicine 4: H4+B1, ig 0.2 ml/10 g; • Test medicine 5: H5+B1, ig 0.2 ml/10 g; • Test medicine 6: H1+B2, ig 0.2 ml/10 g; • Test medicine 7: H2+B2, ig 0.2 ml/10 g; • Test medicine 8: H3+B2, ig 0.2 ml/10 g; • Test medicine 9: H4+B2, ig 0.2 ml/10 g; • Test medicine 10: H5+B2, ig 0.2 ml/10 g; • Test medicine 11: HB ig 0.2 ml/10 g.
# 130 SPF ICR mice were employed with the body weight 20±2 g, half are male and the other half are female. Provided by Zhejiang Province Experimental Animal Center, Licence: SCXK(ZHE)2003-0001
# (§1) 90 ml yolk and 30 ml physiological Saline were mixed thoroughly in electric mixer to form emulsion, which was stored at 4° C. for further use.
# (§2) 140 ICR mice were randomly divided into 14 groups: test medicine 1, test medicine 2, test medicine 3, test medicine 4, test medicine 5, test medicine 6, test medicine 7, test medicine 8, test medicine 9, test medicine 10, test medicine 11, postive control group (Zocor), model control group and normal control group, 10 mice for each group, half male and half female. Once daily for a continous 7-day period, the model control group and normal control group were provided with same volume of distilled water, while the other groups were administered with medicines by gastric perfusion. 2 hours after the last gastric perfusion, except of the normal control group, fresh yolk emulsion was intraperitoneally injected to the rest 13 groups of mice, 0.5 ml for a single animal. After 20 hours, eye ball was plucked and blood was collected, make sure 12 hours fasting before the collection. The content of total cholesterol (TC), triglyceride (TG) and high density lipoprotein (HDL-C) of the serum were measured.
# EXCEL was employed to analyze the significant difference between the groups. The result is shown in X±SD.
# hyperlipidemia mice [2] = assay: Example 15 hypolipidemic effect of peony/Codonopsis extract ratios in yolk emulsion hyperlipidemia mice; type: in vivo; conditions: hyperlipidemia ICR mice
# Experimental: Group H1 and B1 were mixed in different ratios (see Table 8) and formulated into different test medicines. Recommended dose (animal): H1+B1=200 mg/kg body weight, ig dose is 0.2 ml/10 g body weight. [table] 100 SPF ICR mice were employed with the body weight 20±2 g, half are male and the other half are female. Provided by Zhejiang Province Experimental Animal Center, Licence: SCXK(ZHE)2003-0001 90 ml yolk and 30 ml physiological Saline were mixed thoroughly in electric mixer to form emulsion, which was stored at 4° C. for further use. […]: test medicine 1-23 groups, postive control group (Zocor), model control group and normal control group, 10 mice for each group, half male and half female. […] The content of total cholesterol (TC), triglyceride (TG) and high density lipoprotein (HDL-C) of the serum were measured. T test was employed to analyze the significant difference between the groups. The result is shown in X±SD.
# hyperlipidemia mice [3] = assay: Example 16 dose screening of H1+B1 (4:1) in yolk emulsion hyperlipidemia mice; type: in vivo, ICR mice; conditions: dose 20 mg/kg ig once daily 7 days; X±SD, 10 animals
# Experimental: H1 is peony extract obtained from Example 1. B1 is Codonopsis extract obtained from Example 7. The test medicines are mixtures of H1 and B1 with the ratio of 4:1 (the weight ratio of peony extract and Codonopsis extract is 2.7:1).
# 80 SPF ICR mice were employed with the body weight 20±2 g, half are male and the other half are female. Provided by Zhejiang Province Experimental Animal Center, Licence: SCXK(ZHE)2003-0001
# as §1
# as §2, with “80 ICR” for “140 ICR”, “into 8” for “into 14”, “5,” for “5, test medicine 6, test medicine 7, test medicine 8, test medicine 9, test medicine 10, test medicine 11,”, “a continuous” for “a continous”, “except for” for “except of”, “rest 7” for “rest 13”
# T test was employed to analyze the significant difference between the groups. The result is shown in X±SD.
# [4] = ig once daily 7 days, dose 20 mg/kg, X±SD, 10 animals
# [5] = test medicines 200 mg/kg, positive control 20 mg/kg, ig 7 days
structure (smiles),measurement,setting,value
CCC(C)(C)C(=O)O[C@H]1C[C@@H](C)C=C2C=C[C@H](C)[C@H](CC[C@@H]3C[C@@H](O)CC(=O)O3)[C@H]21 [positive control group],HDL-C (serum high density lipoproteincholesterol content),hyperlipidemia mice [1],1.39 ± 0.23 mmol/L
same,HDL-C/TC,hyperlipidemia mice [1],0.18 ± 0.05
same,TC (total serum cholesterol content),hyperlipidemia mice [1],8.58 ± 4.18 mmol/L
same,TG (serum triglyceride content),hyperlipidemia mice [1],7.78 ± 5.36 mmol/L
same,HDL-C (serum high density lipoproteincholesterol content),hyperlipidemia mice [2]; [4],1.59 ± 0.13 mmol/L
same,HDL-C/TC,hyperlipidemia mice [2]; [4],0.22 ± 0.08
same,TC (total serum cholesterol content),hyperlipidemia mice [2]; [4],8.03 ± 3.12 mmol/L
same,TG (serum triglyceride content),hyperlipidemia mice [2]; [4],8.57 ± 4.20 mmol/L
same,TC compared with model control group,hyperlipidemia mice [2]; [5],"lower TC, with significant difference (P<0.05)"
same,TG compared with model control group,hyperlipidemia mice [2]; [5],"lower TG, with significant difference (P<0.05)"
same,HDL-C (serum high density lipoproteincholesterol content),hyperlipidemia mice [3],1.35 ± 0.15 mmol/L
same,HDL-C/TC,hyperlipidemia mice [3],0.26 ± 0.06
same,TC (total serum cholesterol content),hyperlipidemia mice [3],5.97 ± 2.40 mmol/L
same,TG (serum triglyceride content),hyperlipidemia mice [3],4.31 ± 3.28 mmol/L
